{"source": "ChEMBL document CHEMBL2331245", "about": "“Aza-BODIPY: improved synthesis and interaction with soluble Aβ1-42 oligomers” (Bioorg Med Chem Lett, 2013)", "key": {"[1]": {"target": "Amyloid-beta precursor protein (Homo sapiens) (UniProt P05067)", "sequence (P05067 whole entry)": "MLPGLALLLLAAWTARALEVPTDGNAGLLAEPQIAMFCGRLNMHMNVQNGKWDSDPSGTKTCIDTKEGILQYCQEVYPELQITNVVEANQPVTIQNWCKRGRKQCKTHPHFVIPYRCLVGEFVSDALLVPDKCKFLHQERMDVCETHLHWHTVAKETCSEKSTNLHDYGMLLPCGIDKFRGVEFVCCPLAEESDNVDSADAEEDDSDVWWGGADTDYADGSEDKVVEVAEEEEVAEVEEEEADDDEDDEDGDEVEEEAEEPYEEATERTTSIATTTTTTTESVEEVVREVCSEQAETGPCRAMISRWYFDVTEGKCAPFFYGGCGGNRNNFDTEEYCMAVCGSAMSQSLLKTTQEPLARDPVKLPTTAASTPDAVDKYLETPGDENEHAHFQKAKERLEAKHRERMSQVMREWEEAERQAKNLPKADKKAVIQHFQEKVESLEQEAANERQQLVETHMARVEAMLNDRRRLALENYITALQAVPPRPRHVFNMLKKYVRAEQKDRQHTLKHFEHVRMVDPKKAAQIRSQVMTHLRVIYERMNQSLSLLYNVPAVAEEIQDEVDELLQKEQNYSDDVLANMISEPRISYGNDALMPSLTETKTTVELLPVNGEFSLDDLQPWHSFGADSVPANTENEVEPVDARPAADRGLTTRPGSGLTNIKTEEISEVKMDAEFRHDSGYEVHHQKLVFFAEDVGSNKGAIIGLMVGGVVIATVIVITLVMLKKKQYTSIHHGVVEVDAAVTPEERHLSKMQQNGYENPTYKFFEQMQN", "test": "Binding affinity to ordered beta sheet of amyloid beta (1 to 42) (unknown origin) by circular dichroism spectroscopic analysis"}, "[2]": {"target": "Amyloid-beta precursor protein (Homo sapiens) (UniProt P05067)", "test": "Binding affinity to unordered beta sheet of amyloid beta (1 to 42) (unknown origin) assessed as fluorescence enhancement at 0.5 uM by fluorescence spectra analysis relative to control"}, "Albumin [3]": {"target": "T1, Albumin (Bos taurus, UniProt P02769)", "T1 sequence (P02769 whole entry)": "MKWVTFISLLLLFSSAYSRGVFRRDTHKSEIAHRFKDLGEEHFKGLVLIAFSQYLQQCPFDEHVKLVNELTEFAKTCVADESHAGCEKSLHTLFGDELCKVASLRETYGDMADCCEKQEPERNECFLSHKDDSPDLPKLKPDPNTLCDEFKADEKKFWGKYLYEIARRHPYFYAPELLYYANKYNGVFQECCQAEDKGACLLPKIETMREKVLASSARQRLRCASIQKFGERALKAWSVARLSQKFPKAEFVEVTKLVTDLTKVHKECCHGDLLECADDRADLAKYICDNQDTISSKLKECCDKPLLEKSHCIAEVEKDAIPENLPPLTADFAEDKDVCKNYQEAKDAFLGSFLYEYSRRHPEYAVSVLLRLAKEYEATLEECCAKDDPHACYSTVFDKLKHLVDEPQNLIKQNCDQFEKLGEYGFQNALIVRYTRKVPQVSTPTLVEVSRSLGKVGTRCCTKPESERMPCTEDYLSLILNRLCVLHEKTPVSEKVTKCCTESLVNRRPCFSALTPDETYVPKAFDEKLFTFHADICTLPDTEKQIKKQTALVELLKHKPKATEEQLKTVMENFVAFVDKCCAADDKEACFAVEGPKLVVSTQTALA", "test": "Binding affinity to bovine serum albumin at 2 uM by circular dichroism spectroscopic analysis", "conditions": "cattle, TDE = time-dependent effect"}, "Albumin [4]": {"target": "T1, Albumin", "test": "Binding affinity to bovine serum albumin at 2 uM by circular dichroism spectroscopic analysis relative to control", "conditions": "cattle"}, "[5]": {"target": "Amyloid-beta precursor protein (Homo sapiens) (UniProt P05067)", "test": "Binding affinity to unordered beta sheet of amyloid beta (1 to 42) (unknown origin) by circular dichroism spectroscopic analysis"}, "Albumin [6]": {"target": "T1, Albumin", "test": "Binding affinity to beta-sheet rich bovine serum albumin at 2 uM by circular dichroism spectroscopic analysis", "conditions": "cattle, TDE = time-dependent effect"}, "Albumin [7]": {"target": "T1, Albumin", "test": "Binding affinity to bovine serum albumin at 2 uM by circular dichroism spectroscopic analysis relative to control relative to control", "conditions": "cattle"}, "[8]": {"target": "Amyloid-beta precursor protein (Homo sapiens) (UniProt P05067)", "test": "Binding affinity to ordered beta sheet of amyloid beta (1 to 42) (unknown origin) assessed as fluorescence enhancement at 0.5 uM by fluorescence spectra analysis relative to control"}}, "note": "Active and inactive are the calls of the source. The calls are words filed in the database; no cut-off is given here.", "data": [{"smiles": "F[B-]1(F)n2c(-c3ccccc3)cc(-c3ccccc3)c2N=C2C(c3ccccc3)=CC(c3ccccc3)=[N+]21", "values": [{"measurement": "Activity", "setting": "[1]", "value": "Active"}, {"measurement": "fold change (FC)", "setting": "[2]", "value": 6}, {"measurement": "Activity", "setting": "Albumin [3]", "value": "tde"}, {"measurement": "fold change (FC)", "setting": "Albumin [4]", "value": 57}, {"measurement": "Activity", "setting": "[5]", "value": "Active"}, {"measurement": "Activity", "setting": "Albumin [6]", "value": "tde"}, {"measurement": "fold change (FC)", "setting": "Albumin [7]", "value": 340}, {"measurement": "fold change (FC)", "setting": "[8]", "value": 16}]}]}
